From US20170333591A9, “ABSORBENT ARTICLE COMPRISING MALODOR REDUCTION COMPOSITIONS” (The Procter & Gamble Company, priority 2014, published 2017)

Assay: Log of liquid dish neat product liquid-air partition coefficient
Format: physicochemical
Conditions: for Log of liquid dish neat product liquid-air partition coefficient (Comment Code K/L): code letter within the Comment Code cell

Row | SMILES | Log of liquid dish neat product liquid-air partition coefficient (Comment Code K/L) | Comment Code: Log of liquid dish neat product liquid-air partition coefficient
1 | CCCCCC1C(=O)CCC1CC(=O)OC (stereo not drawn) [Material 113] | K (Log of liquid dish neat product liquid-air partition coefficient greater than or equal to 7) | 
2 | Cc1cccc(Oc2ccccc2)c1 [Material 114] | K (Log of liquid dish neat product liquid-air partition coefficient greater than or equal to 7) | 
3 | CCOc1cc(COC)ccc1O [Material 115] |  | K (Log of liquid dish neat product liquid-air partition coefficient greater than or equal to 7)
4 | COC(=O)C=Cc1ccccc1 [Material 117] | K (Log of liquid dish neat product liquid-air partition coefficient greater than or equal to 7) | 
5 | C=CCc1ccc(OC)cc1 [Material 119] | K (Log of liquid dish neat product liquid-air partition coefficient greater than or equal to 7) | 
6 | CC(=O)c1ccc2ccccc2c1 [Material 120] | K (Log of liquid dish neat product liquid-air partition coefficient greater than or equal to 7) | 
7 | COC(C)(C)CCCC(C)C=O (stereo not drawn) [Material 125] |  | K (Log of liquid dish neat product liquid-air partition coefficient greater than or equal to 7)
8 | COC(C)(C)CCCC(C)CC=O (stereo not drawn) [Material 126] | K (Log of liquid dish neat product liquid-air partition coefficient greater than or equal to 7) | 
9 | CC(C)C1CCC(CO)CC1 (stereo not drawn) [Material 133] |  | K (Log of liquid dish neat product liquid-air partition coefficient greater than or equal to 7)
10 | CC(C=O)Cc1cccc(C(C)(C)C)c1 (stereo not drawn) [Material 134] | K (Log of liquid dish neat product liquid-air partition coefficient greater than or equal to 7) | 
11 | CC(C)=CCCC(C)=CCCc1ccncc1 [Material 135] | K (Log of liquid dish neat product liquid-air partition coefficient greater than or equal to 7) | 
12 | C=CCCCCCCCC=CCC#N [Material 137] | K (Log of liquid dish neat product liquid-air partition coefficient greater than or equal to 7) | 
13 | Cc1cccc(CC(C)(C)CO)c1 [Material 140] | K (Log of liquid dish neat product liquid-air partition coefficient greater than or equal to 7) | 
14 | CC1OC(C)C2Cc3ccccc3C2O1 (stereo not drawn) [Material 141] | K (Log of liquid dish neat product liquid-air partition coefficient greater than or equal to 7) | K (Log of liquid dish neat product liquid-air partition coefficient greater than or equal to 7)
15 | CC1=CC2CC(C=O)C1CC2C(C)C (stereo not drawn) [Material 142] | K (Log of liquid dish neat product liquid-air partition coefficient greater than or equal to 7) | 
16 | CC/C=C\CCC1=CCCC1=O [Material 146] | K (Log of liquid dish neat product liquid-air partition coefficient greater than or equal to 7) | 
17 | C=CC(C)(CCC=C(C)C)OC(=O)C(C)C (stereo not drawn) [Material 149] | K (Log of liquid dish neat product liquid-air partition coefficient greater than or equal to 7) | 
18 | C=CC(C)(CCC=C(C)C)OC=O (stereo not drawn) [Material 150] |  | K (Log of liquid dish neat product liquid-air partition coefficient greater than or equal to 7)

Row | SMILES | Log of liquid dish neat product liquid-air partition coefficient (Comment Code K/L) | Comment Code: Log of liquid dish neat product liquid-air partition coefficient
19 | C=CC(C)(CCC=C(C)C)OC(=O)CCC (stereo not drawn) [Material 151] |  | K (Log of liquid dish neat product liquid-air partition coefficient greater than or equal to 7)
20 | C=CC(C)(CCC=C(C)C)OC(C)=O (stereo not drawn) [Material 154] |  | K (Log of liquid dish neat product liquid-air partition coefficient greater than or equal to 7)
21 | C=CC1(C)CCC(C(C)(C)O)O1 (stereo not drawn) [Material 155] | K (Log of liquid dish neat product liquid-air partition coefficient greater than or equal to 7) | 
22 | C=CC1(C)CCC(C(C)(C)O)O1 (stereo not drawn) [Material 156] | K (Log of liquid dish neat product liquid-air partition coefficient greater than or equal to 7) | 
23 | C=CC(C)(O)CCC=C(C)C (stereo not drawn) [Material 157] |  | K (Log of liquid dish neat product liquid-air partition coefficient greater than or equal to 7)
24 | CC/C(C)=C/CC/C(C)=C\C#N [Material 158] | K (Log of liquid dish neat product liquid-air partition coefficient greater than or equal to 7) | 
25 | CC1=CCC(C(C)CC=O)CC1 (stereo not drawn) [Material 159] | K (Log of liquid dish neat product liquid-air partition coefficient greater than or equal to 7) | 
26 | Cc1ccc2c(c1)CC(C)(CO)C2 (stereo not drawn) [Material 161] | K (Log of liquid dish neat product liquid-air partition coefficient greater than or equal to 7) | 
27 | CC(C=O)Cc1ccc(C(C)(C)C)cc1 (stereo not drawn) [Material 162] | K (Log of liquid dish neat product liquid-air partition coefficient greater than or equal to 7) | 
28 | C=C(C)C1CC=C(C)C(O)C1 (stereo not drawn) [Material 170] | K (Log of liquid dish neat product liquid-air partition coefficient greater than or equal to 7) | 
29 | CCCCCCCCCCCCOC(C)=O [Material 175] | K (Log of liquid dish neat product liquid-air partition coefficient greater than or equal to 7) | 
30 | CCCCCCCCCCCC=O [Material 178] | K (Log of liquid dish neat product liquid-air partition coefficient greater than or equal to 7) | 
31 | C=C(OCC)C1C(C)(C)CC(=O)CC1(C)C [Material 182] | K (Log of liquid dish neat product liquid-air partition coefficient greater than or equal to 7) | 
32 | C=C1[C@H]2CC[C@H](CO)[C@@]23CC[C@H](C3)C1(C)C [Material 183] | K (Log of liquid dish neat product liquid-air partition coefficient greater than or equal to 7) | K (Log of liquid dish neat product liquid-air partition coefficient greater than or equal to 7)
33 | CC1(CO)CC1CC1CC2CC2(C)C1(C)C (stereo not drawn) [Material 185] | K (Log of liquid dish neat product liquid-air partition coefficient greater than or equal to 7) | K (Log of liquid dish neat product liquid-air partition coefficient greater than or equal to 7)
34 | CC1OCC(c2ccccc2)O1 (stereo not drawn) [Material 190] | K (Log of liquid dish neat product liquid-air partition coefficient greater than or equal to 7) | 
35 | CC1=CCC(C)C(C)C12C=CC(C)O2 (stereo not drawn) [Material 192] | K (Log of liquid dish neat product liquid-air partition coefficient greater than or equal to 7) | 
36 | CCCCCCCCCCCCCC(=O)OC(C)C [Material 196] | K (Log of liquid dish neat product liquid-air partition coefficient greater than or equal to 7) | 
